Test results published in patent US8691528B2, “Cell penetrating peptide” (Mitsubishi Tanabe Pharma Corporation, priority 2005, dated 2014).
Entries after “also recorded” stand apart in the source; their conditions may differ.

Columns and labels:
Assay type in all cases: cell-based
HeLa cells = assay: Confocal microscopic analysis of intracellular translocation of synthetic peptides in HeLa cells; details: confocal microscopic analysis
Method: (§1) Three kinds of cells were used for incorporating the peptides: CHO cells (ATCC NO. CCL-61), HeLa cells, and Jurkat cells. 10^4 CHO cells and HeLa cells and 10^5 Jurkat cells were separately inoculated to a 96-well plate, and cultured for 2 or 3 days. Subsequently, when the cells became confluent, each peptide solution was added to each type of cell, and the cells were incubated for 1 hour. After each type of cell was washed with PBS three times, 100 μL of 0.25% trypsin-1 mM EDTA solution was added, and trypsinization was performed at room temperature for 5 minutes. After 400 μL of PBS (10% FCS) was added to neutralize the trypsin, the cells were washed with 1 mL of HBSS (Hanks' Balanced Salt Solution/produced by Invitrogen) three times. After the washing, the cells were suspended in 50 μL of HBSS and analyzed using a confocal microscope. Measurements and analysis were performed using a confocal differential interference laser microscope system (Bio-Rad, Radience2100/Green He-Ne, 488 nm, microscope: Nikon, ECLIPSE E600).
In HeLa cells as with CHO cells, intracellular translocation experiments of synthetic peptides of modified PTD sequences were performed by confocal microscopic analysis.

CHO cells = assay: Test of translocation of fluorescence-labeled peptides into CHO cells (FACS and confocal microscopic analysis); details: for contribution of the alanine-substituted amino acid to the intracellular translocation: comprehensive alanine substitution on the basis of KSH1-1
Method: Each peptide solution, adjusted to 1 mM, was diluted with a medium to three levels, 100 μM, 50 μM, and 25 μM, and added to cells. Three kinds of cells were used: CHO cells, HeLa cells, and Jurkat cells. After each peptide solution was added, the cells were incubated for 1 hour. After the cells were washed with PBS three times, 100 μL of 0.25% trypsin-1 mM EDTA solution was added, and trypsinization was performed at room temperature for 5 minutes. After 400 μL of PBS (10% FCS) was added to stop the trypsinization, the cells were washed with 1 mL of HBSS three times. After the washing, the cells were suspended in 500 μL of PBS (10% FCS) and subjected to flowcytometry (hereinafter, FACS) analysis using FACS Calibur (Becton Dickinson).
Each peptide was synthesized, fluorescently labeled, purified and dissolved in the same manner as Example 1-2, a test of translocation into CHO cells was performed, and an evaluation was performed by confocal microscopic analysis and FACS. FACS analysis was performed in the same manner as Example 1-3. For the KSH1 peptide and modified PTD sequences, i.e., KSH1-1 to KSH1-9 peptides (SEQ ID NOS:1 to 9 in the sequence listing), fluorescence intensities determined by FACS analysis are shown in FIG. 6. The peptide addition concentrations were 50 μM, 25 μM, 12.5 μM and 6.5 μM.
To determine which amino acids are important to the intracellular translocation, comprehensive alanine substitution was performed on the basis of KSH1-1 to design KSH1-11 (SEQ ID NO:11 in the sequence listing) to KSH1-23 (SEQ ID NO:22 in the sequence listing) and KSH1-35 (SEQ ID NO:32 in the sequence listing) (FIG. 7). Each peptide was synthesized, fluorescently labeled, purified and dissolved in the same manner as Example 1-2, a test of translocation into CHO cells was performed, and an evaluation was performed by confocal microscopic analysis and FACS. FACS analysis was performed in the same manner as Example 1-3. For KSH1 and modified PTD sequences, i.e., KSH11-11 to 23 and KSH1-35, fluorescence intensities determined by FACS analysis are shown in FIG. 8. The peptide addition concentrations were 50 μM, 25 μM, 12.5 μM and 6.5 μM.
(§2) Each peptide was synthesized, fluorescently labeled, purified and dissolved in the same manner as Example 1-2, a test of translocation into CHO cells was performed, and an evaluation was performed by confocal microscopic analysis and FACS analysis. FACS analysis was performed in the same manner as Example 1-3. For KSH1 and modified PTD sequences, i.e., KSH11-24 to 1-26 and KSH1-28 to 1-30, fluorescence intensities determined by FACS analysis are shown in FIG. 10. The peptide addition concentrations were 50 μM, 25 μM, 12.5 μM and 6.5 μM.
as §2, with “KSH1-27, KSH1-33, KSH1-34” for “KSH11-24 to 1-26”, “KSH1-36,” for “KSH1-28 to 1-30,”, “12.” for “10.”
Each peptide was synthesized, fluorescently labeled, purified and dissolved in the same manner as Example 1-2, and an intracellular translocation test in CHO cells was performed by FACS analysis. Used for positive control were a PTD sequence derived from HIV TAT ([…] in the sequence listing) and the KSH1 peptide; used for negative control was a peptide sequence lacking intracellular transferability (SEQ ID NO:57 in the sequence listing).

Jurkat cells = assay: Confocal microscopic analysis of intracellular translocation of synthetic peptides in Jurkat cells
Method: as §1
In Jurkat cells as well, intracellular translocation experiments of synthetic peptides of modified PTD sequences were performed by confocal microscopic analysis.

[1] = system: CHO cells, HeLa cells, and Jurkat cells; assay: Confocal microscopic analysis of intracellular translocation of fluorescence-labeled peptides; details: for intracellular translocation compared with KSH2: FITC-labeled peptide; for capability of intracellular translocation compared with KSH2: FITC-labeled peptides in CHO, HeLa, and Jurkat cells
Text: With the PTD derived from HIV TAT protein shown by SEQ ID NO:50 in the sequence listing as the positive control (in FIG. 1 to FIG. 3, denoted by “Positive” or “TAT”), and a mutant of the TAT-derived PTD shown by SEQ ID NO:51 in the sequence listing, reported by Ulo Langel et al. (Cell-Penetrating Peptides: Processes and Applications, Series: Pharmacology and Toxicology: Basic and Clinical Aspects Volume:3, 2002), as the negative control (in FIG. 1, denoted by “Negative”), the peptides of the 11 sequences selected in Example 1-1 were evaluated.
The peptides of the 11 sequences selected in Example 1-1 were synthesized by the solid phase method, and fluorescently labeled by coupling 5,6-Carboxyfluorescein to the N-terminus of each peptide. Furthermore, the peptides were purified by HPLC to obtain a purity of 70% or more. Subsequently, each fluorescently labeled peptide was dissolved in 10% Dimethyl Sulfoxide (DMSO) to obtain 1 mM (hereinafter referred to as peptide solution).
as §1
Of the novel PTD sequences found in Example 5, the KSH2 peptide is highly capable of translocating eGFP into cells; an attempt was made to modify the KSH2 peptide. The KSH2-1 to KSH2-4 peptides (SEQ ID NOS:44 to 47 in the sequence listing) were synthesized, fluorescently labeled, purified and dissolved in the same manner as Example 1-2, a test of translocation into CHO cells was performed, and confocal microscopic analysis was performed.
First, two cases were examined: two cysteines were substituted with alanine (KSH2-1) or with tryptophan (KSH2-2). FITC-labeled peptides were synthesized, and their intracellular translocation efficiencies were examined using CHO, HeLa, and Jurkat cells (FIG. 21, the peptide addition concentration was 50 μM, 25 μM or 12.5 μM).

[2] = 50 μM, 25 μM, 12.5 μM and 6.5 μM

| Substance | intracellular translocation in HeLa cells (modified peptides with better translocation) (HeLa cells) | intracellular translocation compared with KSH1 (in words) (CHO cells; [2]) | intracellular translocation in Jurkat cells as compared to that of SEQ ID NO:37 (Jurkat cells) | other results |
| --- | --- | --- | --- | --- |
| KSH1-8: tryptophan cluster form with lysine substituted with arginine (RLWMRWYSPWTRRYG; Designed peptide to act as PTD(Protein Transduction Domain)) | better intracellular translocation | clearly accentuated intracellular translocation | better intracellular translocation | intracellular translocation (in words) (CHO cells; at 25 μM or less): accentuated; intracellular translocation (in words) (CHO cells; at 50 μM): decreased |
| KSH1-9: modified KSH1 with the number of tryptophans increased to 4 (RLWMRWYSPWTRRWG; Designed peptide to act as PTD(Protein Transduction Domain)) | better intracellular translocation | the same tendency as KSH1-8; also recorded: clearly accentuated intracellular translocation | better intracellular translocation | – |
| KSH1-12: alanine substitution form of KSH1-1 (RAWMRWYSPTTRRYG; Designed peptide to act as PTD(Protein Transduction Domain)) | – | – | better intracellular translocation | contribution of the alanine-substituted amino acid to the intracellular translocation (CHO cells): minor contribution |
| KSH1-14: alanine substitution form of KSH1-1 (RLWARWYSPTTRRYG; Designed peptide to act as PTD(Protein Transduction Domain)) | – | – | better intracellular translocation | contribution of the alanine-substituted amino acid to the intracellular translocation (CHO cells): minor contribution |
| KSH1-16: alanine substitution form of KSH1-1 (RLWMRAYSPTTRRYG; Designed peptide to act as PTD(Protein Transduction Domain)) | – | – | – | intracellular translocation in HeLa cells compared with CHO cells (HeLa cells): slightly higher |
| KSH1-18: alanine substitution form of KSH1-1 (8th serine) (RLWMRWYAPTTRRYG; Designed peptide to act as PTD(Protein Transduction Domain)) | better intracellular translocation | clearly accentuated intracellular translocation | better intracellular translocation | – |
| KSH1-20: alanine substitution form of KSH1-1 (RLWMRWYSPATRRYG; Designed peptide to act as PTD(Protein Transduction Domain)) | better intracellular translocation | – | better intracellular translocation | contribution of the alanine-substituted amino acid to the intracellular translocation (CHO cells): minor contribution |
| KSH1-21: alanine substitution form of KSH1-1 (RLWMRWYSPTARRYG; Designed peptide to act as PTD(Protein Transduction Domain)) | – | – | better intracellular translocation | – |
| KSH1-33: 13th arginine substituted with alanine and 10th threonine substituted with arginine (RLWMRWYSPRTRAYG; Designed peptide to act as PTD(Protein Transduction Domain)) | better intracellular translocation | clearly accentuated intracellular translocation | better intracellular translocation | intracellular translocation compared with KSH1-1 (in words) (CHO cells; [2]): nearly equivalent or more than KSH1-1 |
| KSH2-1: KSH2 with two cysteines substituted with alanine (WKARRQAFRVLHHWN; Designed peptide to act as PTD(Protein Transduction Domain)) | – | – | – | intracellular translocation compared with KSH2 ([1]; 25 μM): remarkably decreased intracellular translocation; intracellular translocation compared with KSH2 ([1]; 50 μM): higher intracellular translocation than KSH2 |
| KSH2-2: KSH2 with two cysteines substituted with tryptophan (WKWRRQWFRVLHHWN; Designed peptide to act as PTD(Protein Transduction Domain)) | – | – | – | intracellular translocation compared with KSH2 ([1]; 12.5 μM): higher intracellular translocation efficiency than KSH2; intracellular translocation compared with KSH2 ([1]; 25 μM): higher intracellular translocation efficiency than KSH2; intracellular translocation compared with KSH2 ([1]; 50 μM): higher intracellular translocation than KSH2 |
| KSH2-3: KSH2 with one of the two cysteines substituted with alanine (WKARRQCFRVLHHWN; Designed peptide to act as PTD(Protein Transduction Domain)) | – | – | – | capability of intracellular translocation compared with KSH2 [1]: accentuated |
| KSH2-4: KSH2 with one of the two cysteines substituted with alanine (WKCRRQAFRVLHHWN; Designed peptide to act as PTD(Protein Transduction Domain)) | – | – | – | capability of intracellular translocation compared with KSH2 [1]: accentuated |
